Measured values published in patent US10526660B2, “Methods for evaluating and treating Waldenstrom's macroglobulinemia” (Dana-Farber Cancer Institute, Inc., priority 2013, dated 2020).
Read-outs that look alike come from different tables or passages of the source.

Tests used:
[1] = test system: BCWM.1 and MWCL-1 cells; assay: Annexin V staining (apoptosis), Example 5; type: cell-based; settings: 18 hours
[2] = test system: BCWM.1 and MWCL-1 cells; settings: CXCR4^S338X expressing cells; co-treatment ibrutinib and AMD3100 30 uM
Description: (§1) Five days after transduction, GFP positive cells were sorted and used for functional studies. Surface expression of CXCR4 was determined by flow cytometric analysis using a PE-conjugated anti-CXCR4 monoclonal antibody (BD Biosciences, San Jose Calif.). Transduced cell lines were stimulated with or without SDF-1a (10-100 nM), and cell surface expression of CXCR4 determined on CXCR4^WT and S338X transduced cells. CXCR4 expression levels were calculated as: [(receptor geometric mean fluorescence intensity [MFI] of treated cells-MFI of isotype IgG control)/(receptor geometric MFI of unstimulated cells-MFI of isotype IgG control)]×100.

[3] = test system: BCWM.1 WM cells; settings: CXCR4 S338X transduced cells; 30 nM AMD3100; p<0.005
Source text: Five days after transduction, GFP positive cells were sorted and used for functional studies.

[4] = test system: phospho-AKT, phospho-ERK and phospho-BTK; assay: SDF-1a triggered AKT, ERK and BTK signaling (phosphoflow, immunoblotting) in transduced BCWM.1 cells; type: cell-based
[5] = test system: WHIM patients; settings: WHIM patients treated daily for 6 months; cited from earlier work
[6] = test system: CXCR4^S338X BCWM.1 cells; assay: PARP and caspase 3 cleavage by immunoblotting (apoptosis), BCWM.1; type: cell-based; settings: for level of SDF-1a mediated rescue from PARP and caspase 3 cleavage: agents at EC50 dose ranges, 6 hours, SDF-1a 20 nM
[7] = test system: BCWM.1 WM cells; assay: Annexin V staining (apoptosis) of CXCR4 frameshift/nonsense mutant expressing BCWM.1 cells, Example 6; type: cell-based; settings: CXCR4^T311fs and CXCR4^S344fs cells; for SDF-1a rescue of ibrutinib or idelalisib treated cells: MK-2206 0.5 uM, AS-703026 0.25 uM, 18 hours
Source text: CXCR4^WT, CXCR4^FS, CXCR4^S338X cDNAs were subcloned into plenti-IRES-GFP vector, and transduced using a lentiviral based strategy into BCWM.1 WM cells as before (Cao et al, 2014; Yang et al, 2013). Frameshift mutations proximal and distal to CXCR4^S338X that were identified in WM patients by WGS were studied (FIG. 11). […] The nonsense mutation CXCR4^S338X resulted from C>G change at 136872485 (Hunter et al, 2013). Five days after transduction, GFP positive cells were sorted and used for functional studies. Surface CXCR4 expression was determined at baseline, and following stimulation for 30 minutes with SDF-1a (10-100 nM) as before (Cao et al, 2014). Phosphoflow experiments were performed using conjugated antibodies to phospho-ERK1/2 (T^202/Y^204) and phospho-AKT(S^473) (BD Phosflow) as previously described (Cao et al, 2014). […] Survival studies related to AKT and ERK were performed in the presence or absence AKT (MK-2206, 0.5 uM) or MEK (AS-703026, 0.25 uM) specific inhibitors (Selleck Chemicals, Houston Tex.) as previously reported (Cao et al, 2014).

[8] = test system: CXCR4^S338X MWCL-1 cells; assay: PARP and caspase 3 cleavage by immunoblotting (apoptosis), MWCL-1; type: cell-based; settings: for level of SDF-1a mediated rescue from PARP and caspase 3 cleavage: agents at EC50 dose ranges, 6 hours, SDF-1a 20 nM
[9] = test system: pAKT and pERK; assay: Immunohistochemical staining for pAKT and pERK in bone marrow of WM patients on ibrutinib; type: in vivo, human
[10] = test system: CXCR4; assay: Cell surface CXCR4 expression by flow cytometry in transfected WM cells; type: cell-based
Description: as §1

[11] = CXCR4^S338X BCWM.1 and MWCL-1 cells
[12] = CXCR4^WT and CXCR4^S338X expressing BCWM.1 cells, pre-treatment 2 hours, AMD3100 30 uM or pertussis toxin 500 ng, SDF-1a 20 nM
[13] = SDF-1a cultured CXCR4^S338X BCWM.1 cells, AS-703026 0.25 uM, AZD-6244 0.5 uM, U0126 5.0 uM

For `c1cc(CN2CCCNCCNCCCNCC2)ccc1CN1CCCNCCNCCCNCC1` [AMD3100], the “Annexin V staining: effect of adding AMD3100 to cells treated with ibrutinib and SDF-1a” value [1] was “restoration of apoptotic changes”, the “Annexin V studies: effect of AMD3100 on SDF-1a rescue of idelalisib treated cells” value [1, 11] was “reversal of rescue” and the “reversal of SDF-1a rescue from ibrutinib induced apoptosis” value [2] was “could be reversed”. For the same compound, the “block of CXCL12 rescue from ibrutinib growth effect” value [3] was “rescue could be blocked”, the “SDF-1a triggered AKT and ERK activation” value [4, 12] was “blocked both AKT and ERK activation” and the myelokathexis related leukopenia [5] was “reversed myelokathexis related leukopenia”. For the same compound, the “reversal of SDF-1a mediated rescue by co-treatment with AMD3100” value ([6]; all agents (bendamustine, fludarabine, bortezomib, idelalisib), AMD3100 30 uM) was “reversal of rescue”, the “effect of concurrent CXCR4 antagonist on ibrutinib apoptosis in SDF-1a exposed cells” value ([7]; CXCR4^S338X, plerixafor 30 uM) was “restored the pro-apoptotic effects of ibrutinib” and the “reversal of SDF-1a rescue by co-treatment with AMD3100” value ([8]; idelalisib, fludarabine and bortezomib treated cells, AMD3100 30 uM) was “reversal of SDF1-a rescue”.

For `O=C(NC[C@H](O)CO)c1ccncc1Nc1ccc(I)cc1F` [AS-703026], the “inhibitory activity by western blot analysis for pERK (T202/Y204)” value (“inhibitory activity … (T202/Y204)” below) [4, 13] was “confirmed” and the “SDF-1a rescue of ibrutinib or idelalisib treated cells” value [7] was “attenuated SDF-1a rescue”.

For `Cn1cnc2c(F)c(Nc3ccc(Br)cc3Cl)c(C(=O)NOCCO)cc21` [AZD-6244], the “inhibitory activity … (T202/Y204)” value [4, 13] was “confirmed”.

In the case of `NC1(c2ccc(-c3nc4ccn5c(=O)[nH]nc5c4cc3-c3ccccc3)cc2)CCC1` [MK-2206], the “inhibitory activity by western blot analysis for pAKT (S473)” value ([4]; SDF-1a cultured CXCR4^S338X BCWM.1 cells, 0.5 uM) is reported as “confirmed” and the “SDF-1a rescue of ibrutinib or idelalisib treated cells” value [7] is reported as “attenuated SDF-1a rescue”.

In the case of `N#CC(=C(/N)Sc1ccccc1N)/C(C#N)=C(\N)Sc1ccccc1N` [U0126], the “inhibitory activity … (T202/Y204)” value [4] is reported as “confirmed”.

With `Cn1c(CCCC(=O)O)nc2cc(N(CCCl)CCCl)ccc21` [bendamustine] the “level of SDF-1a mediated rescue from PARP and caspase 3 cleavage” value (“level of SDF-1a mediated rescue” for short) [6] was “moderate” and the “level of SDF-1a mediated rescue” value [8] was “little to no SDF-1a rescue”.

For `CC(C)C[C@H](NC(=O)[C@H](Cc1ccccc1)NC(=O)c1cnccn1)B(O)O` [bortezomib], the “level of SDF-1a mediated rescue” value [6] was “moderate” and the “level of SDF-1a mediated rescue” value [8] was “lesser levels of rescue”.

With `Nc1nc(F)nc2c1ncn2[C@@H]1O[C@H](CO)[C@@H](O)[C@@H]1O` [fludarabine] the “level of SDF-1a mediated rescue” value [6] was “moderate” and the “level of SDF-1a mediated rescue” value [8] was “lesser levels of rescue”.

With `C=CC(=O)N1CCC[C@@H](n2nc(-c3ccc(Oc4ccccc4)cc3)c3c(N)ncnc32)C1` [ibrutinib, 1-[(3R)-3-[4-amino-3-(4-phenoxyphenyl)pyrazolo[3,4-d]pyrimidin-1-yl]piperidin-1-yl]prop-2-en-1-one] the “Annexin V staining: SDF-1a effect on ibrutinib mediated apoptotic changes” value ([1]; ibrutinib plus SDF-1a) was “rescue of ibrutinib mediated apoptotic changes by SDF-1a”, the BTK signaling [4] was “blocked BTK signaling” and the “SDF-1a triggered AKT and ERK activation” value [4] was “attenuated”. The “SDF-1a triggered AKT and ERK signaling” value [4] was “did not show attenuation”, the “pAKT staining in bone marrow on continuous ibrutinib therapy” value ([9]; CXCR4^WHIM patients, 6 months) was “remained robust without any changes from baseline” and the “pAKT staining in bone marrow on continuous ibrutinib therapy” value ([9]; CXCR4^WT patients) was “marginal pAKT staining”. For the same compound, the “pERK staining in bone marrow despite ibrutinib therapy” value ([9]; all patients, regardless of CXCR4 mutation status) was “low levels of pERK staining”, the “cell surface CXCR4 expression following ibrutinib treatment” value ([10]; CXCR4^WT or CXCR4^S338X expressing WM cells, 0.5, 1, 2, and 6 hours) was “little or no significant changes” and the “SDF-1a related changes in cell surface CXCR4 expression” value ([10]; vector only, CXCR4^WT and CXCR4^S338X transfected WM cells, addition of ibrutinib) was “did not affect”.

With `CC[C@H](Nc1ncnc2[nH]cnc12)c1nc2cccc(F)c2c(=O)n1-c1ccccc1` [idelalisib] the “Annexin V studies: SDF-1a rescue” value [1, 11] was “pronounced rescue by SDF-1a”, the “level of SDF-1a mediated rescue” value [6] was “strong” and the “level of SDF-1a mediated rescue” value [8] was “moderate level of rescue”.

In the case of AZD-5363, the “inhibitory effect on AKT (phospho-activity of downstream targets GKS3β and pS6)” value ([4]; CXCR4^S338X BCWM.1 cells, 0.5 uM) is reported as “confirmed by inhibition of the phospho-activity”.

With pertussis toxin the “SDF-1a triggered AKT and ERK activation” value [4, 12] was “blocked both AKT and ERK activation”.
